Test results as given in the METLIN SMRT retention time set (Domingo-Almenara et al. 2019).

test: gradient 5% acetonitrile 3 min, to 50% in 2 min, to 85% in 15 min, held 3 min, 100 µL/min; settings: column: Zorbax Extend-C18 2.1 x 50 mm; eluents: water / acetonitrile, 0.1% formic acid
How it was run: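 Values are retention times taken from adduct peaks that software picked and an analyst inspected. The pure standards were run as mixtures of ~100 molecules on HPLC linked to a quadrupole time-of-flight mass spectrometer, in positive and negative ionization mode. A Zorbax Extend-C18 column (2.1 × 50 mm, 1.8 μm) was used at 100 μL/min with water and acetonitrile, each including 0.1% formic acid.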

Row | Structure (SMILES) | RP-LC retention time
1 | CCCCCC(=O)C(=O)c1ccc(O)cc1O | 819 s
2 | CC(C)NC(=O)N1CCCN(S(C)(=O)=O)CC1 | 598 s
3 | Cc1cc(Cl)ccc1-n1ncc2c(N3CCN(CCO)CC3)ncnc21 | 613 s
4 | CCOC(=O)Cc1csc(NC(=O)C2CCN(C(C)=O)CC2)n1 | 631 s
5 | O=C(Nc1cc(-c2cccs2)nn1CCO)C1COc2ccccc2O1 (stereo not given) | 784 s
6 | CCCN(C(=O)CC(=O)OC)c1nc(-c2ccc(Br)cc2)cs1 | 1240 s
7 | Cc1noc(C)c1CNC(=O)Cc1ccccc1Cl | 725 s
8 | COc1ccc(-c2nn(-c3ccccc3)cc2C#N)cc1[N+](=O)[O-] | 1010 s
9 | Cc1nnsc1C(=O)OCc1cc(-c2ccco2)on1 | 850 s
10 | CCc1c(C(=O)O)nnn1Cc1ccc(OC)cc1 | 734 s
11 | COc1cccc(CNC(=O)N2CCCC2c2cc(C(C)C)no2)c1 (stereo not given) | 836 s
12 | CCCOc1nn(CCC)cc1C(=O)NCc1ccccc1Cl | 1010 s
13 | CCOc1cc(=O)n2c(c1C(=O)NCc1ccc(C)o1)CCCCC2 | 688 s
14 | CCOC(=O)C1CCCN(CC(=O)Nc2nc(-c3ccccc3)cs2)C1 (stereo not given) | 690 s
15 | CNC(=O)N1CCc2nn(Cc3ccccc3)c(=O)n2CC1 | 614 s
16 | CCN1CCN(c2ccc(-c3nc(-c4ccc(OC)cc4)no3)cn2)CC1 | 696 s
17 | O=C(Nc1c2c(nn1-c1cccc(Cl)c1)CSC2)C(=O)N1CCCC1 | 914 s
18 | Cc1ccc2c(c1)N(S(C)(=O)=O)CCC(C(=O)NC1CC3CCC1C3)O2 (stereo not given) | 941 s
19 | COc1ccc(S(=O)(=O)N2CC3CN(C(=O)c4ccncc4)CC(C2)O3)cc1 | 621 s
20 | CC(=O)N1c2ccc(S(=O)(=O)N3CCC(C(=O)Nc4cccc(Cl)c4C)CC3)cc2CC1C (stereo not given) | 895 s
21 | O=C(Nc1cnc(-c2ccccc2)nc1)c1cccc(Cl)c1 | 1050 s
22 | COc1cccc(N2C(=O)CC(N3CCC(C(N)=O)CC3)C2=O)c1 (stereo not given) | 585 s
23 | CCn1ccc(-c2nc(-c3ccc4oc(-c5ccccc5)nc4c3)no2)n1 | 1130 s

Row | Structure (SMILES) | RP-LC retention time
24 | CCOc1cccc(-c2noc(CN3C(=O)COc4cc(Cl)ccc43)n2)c1 | 1180 s
25 | COc1ccc(Cl)cc1NC(=O)c1cc(C(C)C)n2nccc2n1 | 1310 s
26 | CCn1c(N2CCCC(C(=O)NCC3CCN(Cc4cc(C)ccc4C)CC3)C2)cc(=O)n(C)c1=O (stereo not given) | 665 s
27 | O=C(Nc1nnc(-c2ccc(C(F)(F)F)cc2)o1)C1CC1 | 714 s
28 | CNC(=O)Nc1cccc(-c2ccc(OC)nn2)c1 | 631 s
29 | CCOC(=O)C1CCCN(C(=O)CCC(=O)N2CCCn3nc(C)cc32)C1 (stereo not given) | 647 s
30 | CNC(=O)[C@@H]1C[C@H](Oc2ccccc2)CN1C(=O)CCCc1c[nH]c2ccccc12 | 800 s
31 | CC(NC(=O)c1cnc(-c2ccccc2)nc1-c1ccncc1)c1ccc(F)cc1 (stereo not given) | 868 s
32 | COc1ccccc1CNC(=O)c1nnc(-c2ccc(S(=O)(=O)N(C)C)cc2)o1 | 852 s
33 | Cn1cnc2c(NCc3ccccc3)nc(NCCO)nc21 | 657 s
34 | O=C(c1nc2nc(-c3cccs3)cc(C(F)(F)F)n2n1)N1CCN(c2ccccn2)CC1 | 672 s
35 | COc1ccccc1C(=O)N1C[C@@H]2C[C@H]1C[C@@H]2NS(C)(=O)=O | 632 s
36 | CCn1cc(CN2CCC(C(=O)NCc3ccccc3C)CC2)c2cc(OC)ccc21 | 707 s
37 | CCc1cccc(C)c1Nc1c(-c2ccc(F)cc2)nc2nc(C)cc(C)n12 | 828 s
38 | COc1ccc(NC(=O)c2cc(S(=O)(=O)N3CCCC(C)C3)cn2C)c(OC)c1 (stereo not given) | 1010 s
39 | COc1ccc(N2CCN(S(=O)(=O)c3cn(C)nc3C)CC2)cc1 | 719 s
40 | N#Cc1cccc(NC(=O)Cn2cccc(-c3nc(-c4ccccc4)no3)c2=O)c1 | 828 s
41 | O=C(N[C@H]1C[C@@H]2C[C@H]1N(C(=O)c1ccccc1C(F)(F)F)C2)c1ccccc1 | 778 s
42 | O=C(NCc1ccc(F)c(Cl)c1)c1cn(-c2ccc(NC(=O)C3CC3)cn2)cn1 | 801 s
43 | CCOC(=O)c1c(C)oc2nc(C)nc(N3CCN(c4ccccn4)CC3)c12 | 654 s
44 | O=c1c2sccc2n(Cc2nc(-c3cccc(C(F)(F)F)c3)no2)c(=O)n1Cc1ccccc1 | 1190 s
45 | O=C(Nc1nnc(SCCN2CCOCC2)s1)C1CCC1 | 544 s
46 | Cc1ccc(CCN2CC(C(=O)N3CCN(c4cc(=O)n(C)c(=O)n4C)CC3)CC2=O)cc1 (stereo not given) | 656 s

Row | Structure (SMILES) | RP-LC retention time
47 | COC[C@@H]1CN(C(=O)c2ccoc2C)C[C@H]1c1nc(C2CC2)no1 | 574 s
48 | Cc1ccccc1Cn1c(CN2CCC(C(=O)NCCC(C)C)CC2)cc2ccccc21 | 822 s
49 | Cc1cccc2nnc(N3CCC(C(=O)NCc4ccc(C(F)(F)F)cc4)CC3)n12 | 740 s
50 | COc1cc(Nc2nc(C(=O)N3CCOCC3)cc3occc23)cc(OC)c1OC | 710 s
51 | CCC(=O)N1CCc2ccccc2C1C(=O)N1CCN(c2ccccc2)CC1 (stereo not given) | 852 s
52 | Cc1ccc(-c2noc(-c3sccc3NC(=O)c3ccnn3C)n2)cc1 | 1380 s
53 | Cc1cc2nn(CC(=O)Nc3ccc(C)c(C)c3)c(=O)n2c(N2CCCC2)n1 | 1010 s
54 | COc1ccc(OC)c(NC(=O)c2cnn(-c3ccc(Cl)cc3)c2)c1 | 991 s
55 | CCC(=O)N1CCc2cc(C(=O)N(C)C)ccc21 | 673 s
56 | CNc1cc(C)nc2c(-c3ccc(Cl)cc3)cnn12 | 731 s
57 | COc1ccccc1-c1noc(Cn2ncn3nc(-c4ccc(F)cc4)cc3c2=O)n1 | 996 s
58 | COCCn1nc2n(c1=O)CCC1(CC2)CCN(C(=O)C2CCCO2)CC1 (stereo not given) | 600 s
59 | O=C(Nc1c(F)cccc1F)N1CCc2[nH]cnc2C1c1ccccn1 (stereo not given) | 582 s
60 | O=C(COc1cccc(C(F)(F)F)c1)N1CCN(c2ccc(-c3ccco3)nn2)CC1 | 739 s
61 | Cc1csc(-c2ccc(CNC(=O)c3ccoc3)cc2)n1 | 781 s
62 | Cc1nc(N2CCOCC2)c2c(C(=O)Nc3ccc(Br)cc3C)c(C)oc2n1 | 909 s
63 | N#Cc1ccc(NC(=O)Cc2csc3nc(-c4ccccc4)cn23)cc1 | 763 s
64 | O=C(Nc1cccs1)Nc1ccccc1NC(=O)c1ccccc1C(F)(F)F | 805 s
65 | CCN(Cc1ccccc1)Cc1nc(-c2ccc(N3CCCC3)nc2)no1 | 640 s
66 | CCN1C(=O)c2cccnc2Sc2cc(NC(=O)c3ccc(Br)o3)ccc21 | 842 s
67 | CCOc1c(C)cc(S(=O)(=O)NCC2(O)CCOCC2)cc1C | 690 s
68 | COc1ccc(N2CC(c3nc(-c4ccc(Br)cc4)no3)CC2=O)c(OC)c1 (stereo not given) | 1040 s
69 | CCc1cc(=O)n(CC(=O)N(C)c2cccc(C)c2)c(N2CCOCC2)n1 | 764 s

Row | Structure (SMILES) | RP-LC retention time
70 | COc1ccc(Cl)cc1NC(=O)NCCC1CCN(S(=O)(=O)c2ccc(F)cc2)CC1 | 1030 s
71 | Cc1cc2nn(CC(=O)N3CCc4ccccc43)c(=O)n2c(Nc2ccc(F)cc2)n1 | 1030 s
72 | CCc1ccc(C2=C(C)C(N3CCCN(C(=O)Cn4ccnc4)CC3)=NS2(=O)=O)cc1 | 642 s
73 | Cn1cnc(S(=O)(=O)N2CCCC(c3nnnn3-c3ccccc3)C2)c1 (stereo not given) | 690 s
74 | Cc1ccc2c(C(=O)NCCN3CCCCC3)cc(NC(=O)C3CCC3)cc2n1 | 562 s
75 | O=C(Nc1ccc(Cl)cc1)C(=O)c1cn(CC(=O)N2CCCC2)c2ccccc12 | 1020 s
76 | Cc1ccc(NC(=O)N2CCC(n3cnnc3C3CC3)C2)c(Cl)c1 (stereo not given) | 663 s
77 | CCOCN(C(=O)Cn1c(C(C)O)nc2ccccc21)c1c(C)cccc1CC (stereo not given) | 748 s
78 | Cc1cc(C)n(-c2ccnc(N3CCC(C(=O)NCc4ccncc4)CC3)n2)n1 | 599 s
79 | COc1ccc(CC(=O)Nc2ccc3c(c2)Sc2ncccc2C(=O)N3C(C)C)cc1 | 844 s
80 | Cc1ccc(NC(=O)C2CCCN(S(=O)(=O)c3cn(C(C)C)cn3)C2)c(Cl)c1 (stereo not given) | 834 s
81 | CCNC(=O)N1CCCC(c2cccc(C(=O)NC3CCCCC3)c2)C1 (stereo not given) | 817 s
82 | CN(C)C1(CC2CC2)CCN(C(=O)C2CCCC2)CC1 | 604 s
83 | CC1(C(=O)NC2CCCC2)Cn2cnc(C(=O)NCc3cccc(Cl)c3)c2C(=O)N1C1CC1 (stereo not given) | 955 s
84 | O=C(C1=CN(c2ccc(Oc3ccccc3)cc2)c2cc(F)ccc2S1(=O)=O)N1CCOCC1 | 958 s
85 | CNC(=O)c1ccc(Nc2c(-c3ccc(OC)c(OC)c3)nc3cnccn23)cc1 | 606 s
86 | Cc1cccc(CN2CCn3c(nnc3[C@@H]3C[C@@H](O)CN3Cc3ccccc3)C2)c1 | 650 s
87 | CCOc1ccc(S(=O)(=O)N2CCC[C@@H]2C(=O)NCc2csc(C)n2)cc1 | 743 s
88 | CSc1ccc(-c2nc3cnccn3c2Nc2cccc(C(=O)NCCN(C)C)c2)cc1 | 605 s
89 | Cc1ccc(Sc2nccnc2N2CCC(C(=O)NCC3CCCO3)CC2)cc1 (stereo not given) | 814 s
90 | Cc1cc(C)c2nc(C)cc(C(=O)NCc3ccc(C)o3)c2c1 | 735 s
